Results: BindingDB's records for doi:10.1016/j.bmcl.2004.04.033 (Eli Lilly, 2004)
Structures can show the parent of a compound that is named as a salt.

Biological target: cAMP-dependent protein kinase catalytic subunit alpha (Bos taurus, UniProt P00517)
Assay: CDK Kinase Inhibition Assay
Conditions: 25 °C

IC50 [nM] | Compound
> 2000 | COc1ccc2c(c1)[nH]c1c2c2c(c3c4cccc5c4n(c13)CC(CO)C5)C(=O)NC2=O (stereo not given) [24-(hydroxymethyl)-7-methoxy-1,4,14-triazaheptacyclo[16.7.1.0^{2,17}.0^{3,11}.0^{5,10}.0^{12,16}.0^{22,26}]hexacosa-2(17),3(11),5(10),6,8,12(16),18(26),19,21-nonaene-13,15-dione]
> 2000 | O=C1NC(=O)c2c1c1c3ccccc3ccc1c1c2c2cccc3c2n1CC(CO)C3 (stereo not given) [25-(hydroxymethyl)-1,15-diazaheptacyclo[17.7.1.0^{2,18}.0^{3,12}.0^{6,11}.0^{13,17}.0^{23,27}]heptacosa-2(18),3(12),4,6(11),7,9,13(17),19(27),20,22-decaene-14,16-dione]
> 2000 | O=C1NC(=O)c2c1c1c3ccccc3ccc1c1c2c2cccc3c2n1C(CO)CC3 (stereo not given) [26-(hydroxymethyl)-1,15-diazaheptacyclo[17.7.1.0^{2,18}.0^{3,12}.0^{6,11}.0^{13,17}.0^{23,27}]heptacosa-2(18),3(12),4,6(11),7,9,13(17),19(27),20,22-decaene-14,16-dione]

Further lines, the molecule ahead of its results:

Compound | IC50 [nM]
O=C1NC(=O)c2c1c1c3ccc(Br)cc3[nH]c1c1c2c2cccc3c2n1CC(CO)C3 (stereo not given) [7-bromo-24-(hydroxymethyl)-1,4,14-triazaheptacyclo[16.7.1.0^{2,17}.0^{3,11}.0^{5,10}.0^{12,16}.0^{22,26}]hexacosa-2(17),3(11),5(10),6,8,12(16),18(26),19,21-nonaene-13,15-dione] | > 2000
O=C1NC(=O)c2c1c1c3ccc(F)cc3[nH]c1c1c2c2cccc3c2n1CC(CO)C3 (stereo not given) [7-fluoro-24-(hydroxymethyl)-1,4,14-triazaheptacyclo[16.7.1.0^{2,17}.0^{3,11}.0^{5,10}.0^{12,16}.0^{22,26}]hexacosa-2(17),3(11),5(10),6,8,12(16),18(26),19,21-nonaene-13,15-dione] | > 2000
CNCC1Cc2cccc3c4c5c(c6c7ccc(F)cc7[nH]c6c4n(c23)C1)C(=O)NC5=O (stereo not given) [7-fluoro-24-[(methylamino)methyl]-1,4,14-triazaheptacyclo[16.7.1.0^{2,17}.0^{3,11}.0^{5,10}.0^{12,16}.0^{22,26}]hexacosa-2(17),3(11),5(10),6,8,12(16),18(26),19,21-nonaene-13,15-dione hydrochloride] | 383
O=C1NC(=O)c2c1c1c3ccc(F)cc3[nH]c1c1c2c2cccc3c2n1C(CO)CC3 (stereo not given) [7-fluoro-25-(hydroxymethyl)-1,4,14-triazaheptacyclo[16.7.1.0^{2,17}.0^{3,11}.0^{5,10}.0^{12,16}.0^{22,26}]hexacosa-2(17),3(11),5(10),6,8,12(16),18(26),19,21-nonaene-13,15-dione] | > 2000
O=C1NC(=O)c2c1c1c3ccccc3[nH]c1c1c2c2cccc3c2n1CCC3CO (stereo not given) [23-(hydroxymethyl)-1,4,14-triazaheptacyclo[16.7.1.0^{2,17}.0^{3,11}.0^{5,10}.0^{12,16}.0^{22,26}]hexacosa-2(17),3(11),5(10),6,8,12(16),18(26),19,21-nonaene-13,15-dione] | > 2000
O=C1NC(=O)c2c1c1c3ccccc3[nH]c1c1c2c2cccc3c2n1CC(CO)C3 (stereo not given) [24-(hydroxymethyl)-1,4,14-triazaheptacyclo[16.7.1.0^{2,17}.0^{3,11}.0^{5,10}.0^{12,16}.0^{22,26}]hexacosa-2(17),3(11),5(10),6,8,12(16),18(26),19,21-nonaene-13,15-dione] | > 2000
O=C1NC(=O)c2c1c1c3ccc(C(F)(F)F)cc3[nH]c1c1c2c2cccc3c2n1CC(CO)C3 (stereo not given) [24-(hydroxymethyl)-7-(trifluoromethyl)-1,4,14-triazaheptacyclo[16.7.1.0^{2,17}.0^{3,11}.0^{5,10}.0^{12,16}.0^{22,26}]hexacosa-2(17),3(11),5(10),6,8,12(16),18(26),19,21-nonaene-13,15-dione] | > 2000

Biological target: Cyclin-dependent kinase 4/G1/S-specific cyclin-D1 (Homo sapiens, UniProt P11802)
Assay: CDK Kinase Inhibition Assay
Conditions: pH 7; 22 °C
Experimental: In vitro CDK assay using purified enzyme, was incubated at room temperature with substrate, and test compounds in the presence of ATP/[gamma-33P]ATP. 33P incorporation was measured with a Top Count (Packard). IC50 is the inhibitor concentration which inhibits 50% of kinase activity that catalyzes the transfer of the terminal phosphate from 33P labeled ATP to the substrate.

Chain of Cyclin-dependent kinase 4/G1/S-specific cyclin-D1 (P11802 whole entry): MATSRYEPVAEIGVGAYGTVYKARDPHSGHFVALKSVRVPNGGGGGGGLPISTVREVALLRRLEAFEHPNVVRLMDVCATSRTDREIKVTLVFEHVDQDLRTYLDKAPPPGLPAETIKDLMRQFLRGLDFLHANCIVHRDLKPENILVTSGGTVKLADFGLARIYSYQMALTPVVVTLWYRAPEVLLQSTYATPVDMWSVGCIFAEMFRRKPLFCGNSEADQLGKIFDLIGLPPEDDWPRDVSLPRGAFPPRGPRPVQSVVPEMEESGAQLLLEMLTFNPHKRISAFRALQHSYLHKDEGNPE
Chain of Cyclin-dependent kinase 4/G1/S-specific cyclin-D1 (P24385 whole entry, further chain): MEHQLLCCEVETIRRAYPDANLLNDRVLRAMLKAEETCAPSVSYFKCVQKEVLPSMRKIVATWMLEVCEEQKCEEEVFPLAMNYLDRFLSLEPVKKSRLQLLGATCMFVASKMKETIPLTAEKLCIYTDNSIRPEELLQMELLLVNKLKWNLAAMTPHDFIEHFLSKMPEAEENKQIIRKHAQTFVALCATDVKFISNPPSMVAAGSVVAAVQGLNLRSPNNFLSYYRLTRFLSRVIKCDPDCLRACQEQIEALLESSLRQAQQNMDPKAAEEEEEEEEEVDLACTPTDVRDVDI

IC50 [nM] | Compound
898 | CN(C)CC1Cc2cccc3c4c5c(c6c7ccccc7[nH]c6c4n(c23)C1)C(=O)NC5=O (stereo not given) [24-[(dimethylamino)methyl]-1,4,14-triazaheptacyclo[16.7.1.0^{2,17}.0^{3,11}.0^{5,10}.0^{12,16}.0^{22,26}]hexacosa-2(17),3(11),5(10),6,8,12(16),18(26),19,21-nonaene-13,15-dione]
> 2000 | NC(=O)[C@@H]1CCCN1CC1Cc2cccc3c4c5c(c6c7ccc(F)cc7[nH]c6c4n(c23)C1)C(=O)NC5=O (stereo partly drawn) [(2S)-1-({7-fluoro-13,15-dioxo-1,4,14-triazaheptacyclo[16.7.1.0^{2,17}.0^{3,11}.0^{5,10}.0^{12,16}.0^{22,26}]hexacosa-2(17),3(11),5(10),6,8,12(16),18(26),19,21-nonaen-24-yl}methyl)pyrrolidine-2-carboxamide]

The next lines start with the molecule.

Compound | IC50 [nM]
COC(=O)CC(NCC1Cc2cccc3c4c5c(c6c7ccc(F)cc7[nH]c6c4n(c23)C1)C(=O)NC5=O)C(=O)OC (stereo not given) [1,4-dimethyl 2-[({7-fluoro-13,15-dioxo-1,4,14-triazaheptacyclo[16.7.1.0^{2,17}.0^{3,11}.0^{5,10}.0^{12,16}.0^{22,26}]hexacosa-2(17),3(11),5(10),6,8,12(16),18(26),19,21-nonaen-24-yl}methyl)amino]butanedioate] | 671
CNCC1Cc2cccc3c4c5c(c6c7ccc(F)cc7[nH]c6c4n(c23)C1)C(=O)NC5=O (stereo not given) [7-fluoro-24-[(methylamino)methyl]-1,4,14-triazaheptacyclo[16.7.1.0^{2,17}.0^{3,11}.0^{5,10}.0^{12,16}.0^{22,26}]hexacosa-2(17),3(11),5(10),6,8,12(16),18(26),19,21-nonaene-13,15-dione hydrochloride] | 8
O=C1NC(=O)c2c1c1c3ccc(F)cc3[nH]c1c1c2c2cccc3c2n1CC(CCl)C3 (stereo not given) [24-(chloromethyl)-7-fluoro-1,4,14-triazaheptacyclo[16.7.1.0^{2,17}.0^{3,11}.0^{5,10}.0^{12,16}.0^{22,26}]hexacosa-2(17),3(11),5(10),6,8,12(16),18(26),19,21-nonaene-13,15-dione] | 64
